Test results taken from US20250090507A1, “Methods of Treating Cancer With a B-RAF Inhibitor” (MapKure, LLC, priority 2022, published 2025).
“Also recorded” adds a separate entry of the source. Read-outs that look alike come from different tables or passages of the source.

Assay: Phase 1 study (NCT04249843): plasma pharmacokinetics of Compound A
Format: in vivo, human
Details: for Racc: accumulation ratio based on AUC8h; for Cmax / AUC(0-t) / Tmax: human, plasma, oral
Procedure: For a single-dose profile: AUC from zero to the last measurable concentration (AUClast), AUC from zero to infinity (AUC0-∞), maximum observed plasma concentration (Cmax), time to maximum observed plasma concentration (tmax), t1/2, apparent clearance, and apparent volume of distribution (Vz/F). In addition, AUClast,ss, AUCtau, Cmax,ss, and tmax, ss were calculated at steady state.
Pharmacokinetic assay: plasma samples were assayed for Compound A (or possible major metabolites) concentration with use of a validated chromatography method.
Pharmacokinetic data were analyzed using the PK Population. Compound A PK variables (i.e., AUClast, AUC0-∞, Cmax, Tmax, t1/2, apparent clearance and Vz/F) were calculated after single dosing in Phase 1a. In addition, AUClast, ss, AUCtau, Cmax,ss, and tmax,ss were calculated in Phase 1b. The PK parameters were calculated as appropriate using noncompartmental methods and summary statistics were provided. Compound A (or possible major metabolites) plasma concentration data and PK parameters were tabulated and summarized for Day 1 of Cycle 1, Day 1 of Cycle 2 and at steady state (Phase 1b). Descriptive statistics included means, medians, minimums, maximums, standard deviation, coefficient of variation (CV), geometric mean, and geometric CV as appropriate. Mean plasma concentrations were also plotted against time for each dose level. Additional PK analyses may be conducted as appropriate.
Tumor response: • 1 patient evaluable, 201-011: SD week 8. • Preliminary PK parameters and data are listed in Table 6. • Parameters listed as Mean (% CV) • Tmax reported as median (min, max) • Accumulation ratio Racc based on AUC8h • Patient 101-007 was excluded from C2D1 of cohort 2 (10 mg) due to dose reduction. • Patient 101-011 was excluded from summary statistics of CID1 of cohort 6 (60 mg) due to […] samples. • Patient 201-011 C2D1 parameters excluded from summary statistics of C2D1 of cohort 6 due to extended dose interruption.

[1] = 40 mg, 40 mg QD, C2D1, patient 202-012

Compound: O=C1CCc2c(Oc3ccc4c(c3)[C@H]3[C@H](NC(=O)Nc5cc(F)c(F)cc5F)[C@H]3O4)ccnc2N1 [Compound A, 1-((1S,1aS,6bS)-5-((7-oxo-5,6,7,8-tetrahydro-1,8-naphthyridin-4-yl)oxy)-1a,6b-dihydro-1H-cyclopropa[b]benzofuran-1-yl)-3-(2,4,5-trifluorophenyl)urea]
- Racc (5 mg QD, Mean (%CV)): 17 (117%)
- Racc (10 mg QD, Mean (%CV)): 6 (49%)
- Racc (15 mg QD, Mean (%CV)): 7 (60%)
- Racc (25 mg QD, Mean (%CV)): 4 (23%)
- Racc (40 mg QD, Mean (%CV)): 4 (23.5%)
- Racc (40 mg QD, patient 101-010): 4.05
- Racc (40 mg QD, patient 102-012): 4.06
- Racc (40 mg QD, patient 201-010): 5.43
- Racc (40 mg QD, patient 202-012): 3.06
- Racc (60 mg QD, patient 101-011): 6.7
- Racc (60 mg QD, patient 201-011): 5.7
- Dose proportionality of exposure (5-60 mg QD, preliminary PK): generally increased dose-proportionally; also recorded: generally dose-proportional
- Exposure across cohorts versus dose (cohorts up to 40 mg QD): generally proportional to the increase in the dose
- Cmax (5 mg, 5 mg QD, C2D1, Mean (%CV)): 451 ng/mL
- AUC(0-t) (5 mg, 5 mg QD, C2D1, Mean (%CV), read-out: AUC8 h): 2660 ng·h/mL
- Cmax (5 mg, C1D1, Mean (%CV)): 105 ng/mL
- AUC(0-t) (5 mg, C1D1, Mean (%CV), read-out: AUC8 h): 414 ng·h/mL
- AUC(0-t) (5 mg, C1D1, Mean (%CV), read-out: AUC24 h): 1380 ng·h/mL
- Cmax (10 mg, 10 mg QD, C2D1, Mean (%CV), patient 101-007 excluded): 973 ng/mL
- AUC(0-t) (10 mg, 10 mg QD, C2D1, Mean (%CV), patient 101-007 excluded, read-out: AUC8 h): 5720 ng·h/mL
- Cmax (10 mg, C1D1, Mean (%CV)): 197 ng/mL
- AUC(0-t) (10 mg, C1D1, Mean (%CV), read-out: AUC8 h): 1060 ng·h/mL
- AUC(0-t) (10 mg, C1D1, Mean (%CV), read-out: AUC24 h): 3140 ng·h/mL
- Cmax (15 mg, 15 mg QD, C2D1, Mean (%CV)): 1660 ng/mL
- AUC(0-t) (15 mg, 15 mg QD, C2D1, Mean (%CV), read-out: AUC8 h): 9930 ng·h/mL
- Cmax (15 mg, C1D1, Mean (%CV)): 274 ng/mL
- AUC(0-t) (15 mg, C1D1, Mean (%CV), read-out: AUC8 h): 1530 ng·h/mL
- AUC(0-t) (15 mg, C1D1, Mean (%CV), read-out: AUC24 h): 4780 ng·h/mL
- Cmax (25 mg, 25 mg QD, C2D1, Mean (%CV)): 2110 ng/mL
- AUC(0-t) (25 mg, 25 mg QD, C2D1, Mean (%CV), read-out: AUC8 h): 12300 ng·h/mL
- Cmax (25 mg, C1D1, Mean (%CV)): 593 ng/mL
- AUC(0-t) (25 mg, C1D1, Mean (%CV), read-out: AUC8 h): 3090 ng·h/mL
- AUC(0-t) (25 mg, C1D1, Mean (%CV), read-out: AUC24 h): 9170 ng·h/mL
- Cmax (40 mg, 40 mg QD, C2D1, Mean (%CV)): 2970 ng/mL
- AUC(0-t) (40 mg, 40 mg QD, C2D1, Mean (%CV), read-out: AUC8 h): 15700 ng·h/mL
- Cmax (40 mg, 40 mg QD, C2D1, patient 101-010): 3600 ng/mL
- AUC(0-t) (40 mg, 40 mg QD, C2D1, patient 101-010, read-out: AUC8 h): 15600 ng·h/mL
- Cmax (40 mg, 40 mg QD, C2D1, patient 102-012): 3550 ng/mL
- AUC(0-t) (40 mg, 40 mg QD, C2D1, patient 102-012, read-out: AUC8 h): 18300 ng·h/mL
- Cmax (40 mg, 40 mg QD, C2D1, patient 201-010): 2410 ng/mL
- AUC(0-t) (40 mg, 40 mg QD, C2D1, patient 201-010, read-out: AUC8 h): 13400 ng·h/mL
- Cmax [1]: 2300 ng/mL
- Tmax [1]: 3 h
- AUC(0-t) (40 mg, 40 mg QD, C2D1, patient 202-012, read-out: AUC8 h): 15400 ng·h/mL
- Cmax (40 mg, C1D1, Mean (%CV)): 698 ng/mL
- AUC(0-t) (40 mg, C1D1, Mean (%CV), read-out: AUC8 h): 3960 ng·h/mL
- AUC(0-t) (40 mg, C1D1, Mean (%CV), read-out: AUC24 h): 12100 ng·h/mL
- Cmax (40 mg, C1D1, patient 101-010): 692 ng/mL
- AUC(0-t) (40 mg, C1D1, patient 101-010, read-out: AUC8 h): 3850 ng·h/mL
- AUC(0-t) (40 mg, C1D1, patient 101-010, read-out: AUC24 h): 12000 ng·h/mL
- Cmax (40 mg, C1D1, patient 102-012): 789 ng/mL
- AUC(0-t) (40 mg, C1D1, patient 102-012, read-out: AUC8 h): 4510 ng·h/mL
- AUC(0-t) (40 mg, C1D1, patient 102-012, read-out: AUC24 h): 12300 ng·h/mL
- Cmax (40 mg, C1D1, patient 201-010): 415 ng/mL
- AUC(0-t) (40 mg, C1D1, patient 201-010, read-out: AUC8 h): 2470 ng·h/mL
- AUC(0-t) (40 mg, C1D1, patient 201-010, read-out: AUC24 h): 8460 ng·h/mL
- Cmax (40 mg, C1D1, patient 202-012): 896 ng/mL
- AUC(0-t) (40 mg, C1D1, patient 202-012, read-out: AUC8 h): 5040 ng·h/mL
- Cmax (60 mg, 60 mg QD, C2D1, Mean row, patient 201-011 excluded): 5330 ng/mL
- AUC(0-t) (60 mg, 60 mg QD, C2D1, Mean row, patient 201-011 excluded, read-out: AUC8 h): 37500 ng·h/mL
- Cmax (60 mg, 60 mg QD, C2D1, patient 201-011 (excluded from C2D1 summary, extended dose interruption)): 5230 ng/mL
- AUC(0-t) (60 mg, 60 mg QD, C2D1, patient 201-011 (excluded from C2D1 summary, extended dose interruption), read-out: AUC8 h): 31300 ng·h/mL
- Cmax (60 mg, C1D1, Mean (%CV), patient 101-011 excluded): 881 ng/mL
- AUC(0-t) (60 mg, C1D1, Mean (%CV), patient 101-011 excluded, read-out: AUC8 h): 4930 ng·h/mL
- AUC(0-t) (60 mg, C1D1, Mean (%CV), patient 101-011 excluded, read-out: AUC24 h): 15400 ng·h/mL
- Cmax (60 mg, C1D1, patient 101-011 (excluded from C1D1 summary statistics, AQL samples)): 878 ng/mL
- AUC(0-t) (60 mg, C1D1, patient 101-011 (excluded from C1D1 summary statistics, AQL samples), read-out: AUC8 h): 5630 ng·h/mL
- AUC(0-t) (60 mg, C1D1, patient 101-011 (excluded from C1D1 summary statistics, AQL samples), read-out: AUC24 h): 18900 ng·h/mL
- Cmax (60 mg, C1D1, patient 201-011): 957 ng/mL
- AUC(0-t) (60 mg, C1D1, patient 201-011, read-out: AUC8 h): 5510 ng·h/mL
- AUC(0-t) (60 mg, C1D1, patient 201-011, read-out: AUC24 h): 17600 ng·h/mL
- Cmax (60 mg, C1D1, patient 202-014): 804 ng/mL
- AUC(0-t) (60 mg, C1D1, patient 202-014, read-out: AUC8 h): 4340 ng·h/mL
- AUC(0-t) (60 mg, C1D1, patient 202-014, read-out: AUC24 h): 13100 ng·h/mL
- Tmax (5 mg QD, C2D1, median (min, max)): 1 h
- Tmax (40 mg QD, C2D1, median (min, max)): 1.5 h
- Tmax (60 mg QD, C2D1, patient 201-011 (excluded from C2D1 summary, extended dose interruption)): 2 h
- Tmax (5-60 mg QD, preliminary PK, overall): ~2 h
- average accumulation in exposure at steady-state (preliminary PK): 7.4 fold
- terminal half-life (preliminary PK): long
